# According to patent US20150176022A1, “HERBICIDE-RESISTANT SUNFLOWER PLANTS, POLYNUCLEOTIDES ENCODING HERBICIDE=RESISTANT ACETO HYDROXY ACID SYNTHASE LARGE SUBUNIT PROTEINS, AND METHODS OF USE” (priority 2013, published 2015):
# What was measured:
# Assay type in all cases: in vivo, Helianthus annuus
# [1] = system: Clearfield-Sunflower variety A; experiment: Greenhouse spray test, injury rating (Example 5); settings: Imazapyr 240 gm ai/ha, 14 DAT, scale 0=no injury to 9=dead plant
# Excerpt: (§1) Sunflower lines S4897, Clearfield® sunflower varieties A, B, C and a conventional non-Clearfield variety were sprayed with three rates of imazamox (Raptor™), 100, 200 and 300 gm ai/ha plus 0.5% Sun It II and two rates of imazapyr (Arsenal™) 160 and 360 gm ai/ha plus 0.5% Sun It II when the plants were at the two to three leaf stage. Ratings were taken at 14 days after application (DAT) for injury. Injury was rated on a scale from 0 to 9 where 0=no injury to 9=dead plant. Twelve plants were sprayed per herbicide/rate treatment. Statistical analysis was conducted with STATGRAPHICS Plus 5.0 by using ANOVA and LSD procedures.
# (§2) After plants were sprayed, it was realized that a height difference between S4897 and other sunflower varieties would have impacted the actual herbicide dose that was delivered. The spray boom height had been calibrated against S4897 and since the other varieties were taller and closer to the boom they would have received a greater dose of herbicide. Rates were recalibrated for the other varieties to determine the approximate dose they would have received. Assessments were made as presented in Table 2 since it was not possible to make a direct rate comparison due to the effect of the height. For example injury scores were compare for S4897 treated imazamox rate 100 gm ai/ha to the other varieties treated at 75 gm ai/ha. The treatment dose of 300 gm ai/ha for line S4897 was equivalent to the treatment of 200 gm ai/ha for the other varieties, which […].
# [2] = system: Clearfield-Sunflower variety B; experiment: Greenhouse spray test, injury rating (Example 5); settings: Imazapyr 240 gm ai/ha, 14 DAT, scale 0=no injury to 9=dead plant
# Excerpt: as §1, §2
# [3] = system: Clearfield-Sunflower variety C; experiment: Greenhouse spray test, injury rating (Example 5); settings: Imazapyr 240 gm ai/ha, 14 DAT, scale 0=no injury to 9=dead plant
# Excerpt: as §1, §2
# [4] = system: Conventional non-Clearfield sunflower variety; experiment: Greenhouse spray test, injury rating (Example 5); settings: Imazapyr 240 gm ai/ha, 14 DAT, scale 0=no injury to 9=dead plant
# Excerpt: as §1, §2
# [5] = system: Sunflower line S4897; experiment: Greenhouse spray test, injury rating (Example 5); settings: Imazapyr 360 gm ai/ha, 14 DAT, scale 0=no injury to 9=dead plant
# Excerpt: as §1, §2
# [6] = system: sunflower TH12 (Restorer Line, A122T); experiment: Greenhouse whole-plant imazapir dose response (Example 8); settings: 14 DAT
# Description: (§3) A greenhouse study was conducted to quantify and contrast the imazapir sensitivity of the mutants A122T and A205V in different genetic backgrounds at the whole plant level in sunflower. Seeds of the different sunflower lines that were used in this study were obtained under field conditions.
# (§4) Seeds were sown in Petri dishes and, after germination, plantlets were transplanted to pots of 10 cm of diameter in a potting media consisting of equal parts of vermiculite, soil and sand. Plants were grown in a greenhouse under natural light conditions supplemented with 400 W sodium halide lamps to provide a 16 hrs daylength. Day/night temperatures were 25 and 20° C., respectively. At the V2 stage 10 plants of each genotype were randomly assigned to each treatment consisting of […] imazapir doses (0, 40, 80, 160, 240, 320, 400 and 480 g ai/ha), and a zero-time biomass determination. Experiment was arranged as a randomized block design with a full factorial (sunflower line×treatment) arrangement of treatments and 10 replications.
# (§5) On the day of herbicide application ten plants of each genotype were cut at the cotyledonal node and dried at 60° C. for 48 hrs zero-time for dried weight determination. […] Height was determined as the distance between the cotyledonal node and the apex of each plant. For root biomass determination, each plant was taken from the pot and the potting media was washed out from the roots. Above ground biomass data from each line were converted to biomass accumulation after application by subtracting the appropriate average zero-time biomass from each sample. Dry biomass data were converted to percentages of the untreated control plants within each line to allow direct comparisons between groups.
# [7] = system: A122T versus A205V sunflower genotypes; experiment: Greenhouse whole-plant imazapir dose response (Example 8), difference between mutants; settings: difference of group means, 14 DAT
# Description: as §3, §4, §5
smiles,measurement,setting,value
"CC(C)C1(C)N=C(c2ncccc2C(=O)O)NC1=O (centres unmarked) [imazapir, imazapyr]",Injury,[1],5.0 c
same,Injury,[2],4.3 b
same,Injury,[3],4.9 c
same,Injury,[4],8.2 days
same,Injury,[5]; listed as Imazapyr,0.8 a
same,Injury,[5]; listed as imazapyr,very little injury
same,Phytotoxicity Index,[6]; 0.5× (40 g ai/ha),0.0
same,"biomass accumulation (dry biomass, % of untreated)",[6]; 0.5× (40 g ai/ha),100.0%
same,plant height (% of untreated),[6]; 0.5× (40 g ai/ha),100.0%
same,root dry weight (% of untreated),[6]; 0.5× (40 g ai/ha),99.4%
same,Phytotoxicity Index,[6]; 1× (80 g ai/ha),0.0
same,"biomass accumulation (dry biomass, % of untreated)",[6]; 1× (80 g ai/ha),99.1%
same,plant height (% of untreated),[6]; 1× (80 g ai/ha),100.0%
same,root dry weight (% of untreated),[6]; 1× (80 g ai/ha),100%
same,Phytotoxicity Index,[6]; 2× (160 g ai/ha),0.0
same,"biomass accumulation (dry biomass, % of untreated)",[6]; 2× (160 g ai/ha),97.0%
same,plant height (% of untreated),[6]; 2× (160 g ai/ha),101.8%
same,root dry weight (% of untreated),[6]; 2× (160 g ai/ha),100%
same,Phytotoxicity Index,[6]; 3× (240 g ai/ha),0.0
same,"biomass accumulation (dry biomass, % of untreated)",[6]; 3× (240 g ai/ha),96.1%
same,plant height (% of untreated),[6]; 3× (240 g ai/ha),97.0%
same,root dry weight (% of untreated),[6]; 3× (240 g ai/ha),100.0%
same,Phytotoxicity Index,[6]; 4× (320 g ai/ha),0.0
same,"biomass accumulation (dry biomass, % of untreated)",[6]; 4× (320 g ai/ha),84.3%
same,plant height (% of untreated),[6]; 4× (320 g ai/ha),92.1%
same,root dry weight (% of untreated),[6]; 4× (320 g ai/ha),74.5%
same,Phytotoxicity Index,[6]; 5× (400 g ai/ha),0.0
same,"biomass accumulation (dry biomass, % of untreated)",[6]; 5× (400 g ai/ha),77.5%
same,plant height (% of untreated),[6]; 5× (400 g ai/ha),84.8%
same,root dry weight (% of untreated),[6]; 5× (400 g ai/ha),65.0%
same,Phytotoxicity Index,[6]; 6× (480 g ai/ha),0.5
same,"biomass accumulation (dry biomass, % of untreated)",[6]; 6× (480 g ai/ha),70.7%
same,plant height (% of untreated),[6]; 6× (480 g ai/ha),79.8%
same,root dry weight (% of untreated),[6]; 6× (480 g ai/ha),57.8%
same,"Phytotoxicity Index, Dif A205V-A122T",[7]; 0.5× (40 g ai/ha),−0.29
same,"biomass, Dif A122T-A205V",[7]; 0.5× (40 g ai/ha),4.3%
same,"plant height, Dif A122T-A205V",[7]; 0.5× (40 g ai/ha),4.9%
same,"root dry weight, Dif A122T-A205V",[7]; 0.5× (40 g ai/ha),12.7%
same,"Phytotoxicity Index, Dif A205V-A122T",[7]; 1× (80 g ai/ha),−0.29
same,"biomass, Dif A122T-A205V",[7]; 1× (80 g ai/ha),14.5%
same,"plant height, Dif A122T-A205V",[7]; 1× (80 g ai/ha),9.4%
same,"root dry weight, Dif A122T-A205V",[7]; 1× (80 g ai/ha),26.7%
same,"Phytotoxicity Index, Dif A205V-A122T",[7]; 2× (160 g ai/ha),1.87
same,"biomass, Dif A122T-A205V",[7]; 2× (160 g ai/ha),33.2%
same,"plant height, Dif A122T-A205V",[7]; 2× (160 g ai/ha),28.0%
same,"root dry weight, Dif A122T-A205V",[7]; 2× (160 g ai/ha),43.6%
same,"Phytotoxicity Index, Dif A205V-A122T",[7]; 3× (240 g ai/ha),4.81
same,"biomass, Dif A122T-A205V",[7]; 3× (240 g ai/ha),45.3%
same,"plant height, Dif A122T-A205V",[7]; 3× (240 g ai/ha),45.3%
same,"root dry weight, Dif A122T-A205V",[7]; 3× (240 g ai/ha),50.2%
same,"Phytotoxicity Index, Dif A205V-A122T",[7]; 4× (320 g ai/ha),6.92
same,"biomass, Dif A122T-A205V",[7]; 4× (320 g ai/ha),52.4%
same,"plant height, Dif A122T-A205V",[7]; 4× (320 g ai/ha),59.9%
same,"root dry weight, Dif A122T-A205V",[7]; 4× (320 g ai/ha),50.3%
same,"Phytotoxicity Index, Dif A205V-A122T",[7]; 5× (400 g ai/ha),7.38
same,"biomass, Dif A122T-A205V",[7]; 5× (400 g ai/ha),46.9%
same,"plant height, Dif A122T-A205V",[7]; 5× (400 g ai/ha),57.8%
same,"root dry weight, Dif A122T-A205V",[7]; 5× (400 g ai/ha),47.9%
same,"Phytotoxicity Index, Dif A205V-A122T",[7]; 6× (480 g ai/ha),7.03
same,"biomass, Dif A122T-A205V",[7]; 6× (480 g ai/ha),44.6%
same,"plant height, Dif A122T-A205V",[7]; 6× (480 g ai/ha),54.0%
same,"root dry weight, Dif A122T-A205V",[7]; 6× (480 g ai/ha),37.3%
